Data: patent US7144864B2, “Carboxypeptidase R inhibiting peptide” (Hidechika Okada, priority 2002, dated 2006)
“Also recorded” adds a separate entry of the source. One block for each compound: values may come before it. Bridge positions count the residues as written; N and C are the ends. Ends that are not written are not given here. Peptide text beside a SMILES is read from it.

Legend:
[1] = biological target: T1, purified CPN (carboxypeptidase N) (Homo sapiens, UniProt P15169); assay: CPN kinetics: effect on purified CPN with hippuryl-L-arginine as substrate; assay type: biochemical
T1 construct: corresponding to the two large identical glycosylated subunits and the two smaller active subunits; from tissue
T1 sequence (P15169 21-458): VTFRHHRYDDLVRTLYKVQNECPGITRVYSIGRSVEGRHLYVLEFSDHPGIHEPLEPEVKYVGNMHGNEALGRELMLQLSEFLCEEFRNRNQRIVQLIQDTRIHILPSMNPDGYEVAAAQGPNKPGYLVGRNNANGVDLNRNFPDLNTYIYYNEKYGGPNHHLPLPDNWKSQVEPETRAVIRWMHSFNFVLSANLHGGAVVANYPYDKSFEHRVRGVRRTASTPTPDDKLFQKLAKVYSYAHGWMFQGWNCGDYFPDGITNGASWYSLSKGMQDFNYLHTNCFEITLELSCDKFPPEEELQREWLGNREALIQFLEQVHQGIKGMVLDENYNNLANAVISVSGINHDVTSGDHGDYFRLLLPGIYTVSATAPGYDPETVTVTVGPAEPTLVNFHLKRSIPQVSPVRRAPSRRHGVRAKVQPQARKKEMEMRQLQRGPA
T1 sequence (P22792 22-545 partner): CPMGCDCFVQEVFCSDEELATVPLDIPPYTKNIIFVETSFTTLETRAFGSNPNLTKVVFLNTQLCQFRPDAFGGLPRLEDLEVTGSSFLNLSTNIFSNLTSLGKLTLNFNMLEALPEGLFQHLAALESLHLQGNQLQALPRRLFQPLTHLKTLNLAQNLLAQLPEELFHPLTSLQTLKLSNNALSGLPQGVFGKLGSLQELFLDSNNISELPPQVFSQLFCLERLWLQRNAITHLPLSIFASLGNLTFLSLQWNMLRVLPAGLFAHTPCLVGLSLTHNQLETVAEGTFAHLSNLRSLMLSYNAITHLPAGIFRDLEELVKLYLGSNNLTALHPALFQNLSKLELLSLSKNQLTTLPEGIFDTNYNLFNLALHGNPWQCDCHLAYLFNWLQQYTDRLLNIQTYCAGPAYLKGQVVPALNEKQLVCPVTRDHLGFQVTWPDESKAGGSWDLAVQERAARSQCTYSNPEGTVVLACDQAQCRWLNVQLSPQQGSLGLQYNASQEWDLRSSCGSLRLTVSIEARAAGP
Protocol: (§1) ProCPR was purified to homogeneity as previously described. […] CPN was purified to homogeneity as previously described. The enzyme gave three bands on SDS-PAGE at 83 kDa, 53 kDa and 50 kDa corresponding to the two large identical glycosylated subunits and the two smaller active subunits, respectively.
The effect of CPI-2KR on purified CPN was determined using hippuryl-L-arginine as the substrate. Guanidinoethylmercaptosuccinic acid (GEMSA) was used as a positive control. CPI-2KR ([…]), GEMSA ([…]) or Tris-HCl buffer (50 mM; pH 7.5) were added to CPN (10 mg/ml) at a 1:7 ratio. Identical conditions to those used for the CPR kinetics experiments were subsequently applied.

[2] = biological target: T2, purified CPR (carboxypeptidase R) (Homo sapiens, UniProt Q96IY4); assay: CPR kinetics: inhibition of CPR-catalysed hydrolysis of hippuryl-L-arginine; assay type: biochemical
T2 construct: from tissue
T2 sequence (Q96IY4 115-423): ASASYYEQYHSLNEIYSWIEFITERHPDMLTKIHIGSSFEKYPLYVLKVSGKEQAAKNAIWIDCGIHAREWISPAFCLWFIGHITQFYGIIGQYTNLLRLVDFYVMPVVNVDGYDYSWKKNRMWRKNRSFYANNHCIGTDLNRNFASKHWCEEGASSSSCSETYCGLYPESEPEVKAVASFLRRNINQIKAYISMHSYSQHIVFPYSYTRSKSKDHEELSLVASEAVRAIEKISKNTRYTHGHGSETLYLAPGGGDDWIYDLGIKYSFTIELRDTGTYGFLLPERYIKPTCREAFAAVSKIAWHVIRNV
Protocol: as §1
The activity of the CPR inhibitors was determined against purified CPR using hippuryl-L-arginine as the substrate. The peptides PCI-2K-R, CPI-2KR, PCI (500, 250/125/62.5, 50 mg/ml, respectively) or Tris-HCl buffer (50 mM; pH 7.5) were added to active CPR (40–320 mg/ml) at a 1:7 ratio. After thorough mixing, […] was incubated with various concentrations of hippuryl-L-arginine (1.2–6.0 mM), for 15 minutes at 37° C. The reaction was stopped with the addition of sodium phosphate buffer ([…]; 0.25 M), immediately followed by 3% cyanuric chloride in 1,4-dioxane ([…]). After mixing well, the generation of hippuric acid was determined by measuring the OD at 405 nm on a SpectraMAX 250 Microplate Spectrophotometer (Molecular Device Corporation, Sunnyvale, Calif., USA). Hippuric acid (0–2.0 mM) in Tris buffer was used as the standard.
A kinetics analysis of the CPR-catalysed hydrolysis of hippuryl-L-arginine in the absence and presence of inhibitory molecules was performed. The Lineweaver-Burk reciprocal plot, based on rearrangement of the Henri-Michaelis-Menten equation into a linear form, was applied:
[formula] where v (in mM sec^−1) is the instantaneous or initial velocity, [S] (mM) is the substrate concentration, Km(mM)is equivalent to the substrate concentration that yields half-maximal velocity and Vmax(mM sec^−1) is the maximum velocity. For competitive inhibition, where the inhibitor competes with the substrate for binding to the enzyme, the following mechanism was assumed: where
In competitive inhibition, the apparent Vmax is not affected with increasing inhibitor concentrations because once substrate binds the reaction proceeds normally (i.e. Vmax depends only on maximum ES complex concentration, which only depends on the total amount of enzyme present) However, the apparent Km increases (i.e. a higher substrate concentration is required for a given velocity) by a factor of [1+([I]/Ki)].
[formula] where Kmapp is the apparent Km for a given inhibitor concentration.
The Dixon plot (1/v versus [I] in the presence of different concentrations of substrate) provides a more diagnostic way of identifying the type of inhibition and determining the Ki: […]

[3] = test system: TM-induced retardation of t-PA-induced fibrinolysis; assay: TM-induced retardation of t-PA-induced fibrinolysis in human plasma (clot lysis); assay type: biochemical
Protocol: Human plasma was obtained by centrifugation of citrated blood at 3000 g for 15 minutes at room temperature. In a 96-well microtitre plate, […] of a thrombin/calcium mix [50 ml calcium (CaCl Q; 1 M), […] of thrombin (T; 500 U/ml) and 430 ml of Tris buffer (50 mM, pH 7.5)] was added followed by 10 ml of thrombomodulin (TM; final concentration 8 nM). Subsequently, 10 ml of peptide solution in Tris buffer (16 mg/ml […]), Tris buffer or PCI (50 mg/ml) were added. After the addition of 50 ml of a t-PA/plasma mix [[…] of t-PA (130 mg/ml) mixed with 1 ml of pre-warmed citrated plasma (37° C. for 5 minutes) ] the plate was immediately read at 420 nm every 5 minutes for 2 hours on a SpectraMAX 250 Microplate Spectrophotometer (Molecular Device Corporation, Sunnyvale, Calif., USA). Lysis time was defined as the time required for the absorbance to reach half the difference between the plateau reached after clotting and baseline achieved at clot lysis.

CPR = biological target: T3, CPR (Homo sapiens, UniProt Q96IY4); details: cited from earlier work
T3 sequence (Q96IY4 115-423): T2 sequence (Q96IY4 115-423)

Compound: N=C(N)NCCSC(CC(=O)O)C(=O)O (centres unmarked) [GEMSA, guanidinoethylmercaptosuccinic acid]
inhibitory activity against CPN ([1]; at 425 nM): inhibited
inhibitory activity against CPN ([1]; at 2.1 mM): strong inhibitory activity
concentration at which CPR is inhibited (literature [40]) (CPR): 18 mM

Compound: CPI-2KR-cyclic: cyclised CPI-2KR via N- and C-terminal cysteine residues, SEQ ID NO: 3 (CKPAKNARC; disulfide 1-9)
effect on TM-induced retardation of t-PA-induced fibrinolysis (in words) [3]: dramatic loss of inhibitory activity

Compound: PCI-R: PCI-derived peptide containing the arginine residue, SEQ ID NO: 2 (QACWNSART)
inhibitory activity against CPR (in words) [2]: no activity was observed

Now from value to compound, other results behind:

inhibitory activity against CPN ([1]; at 506 nM): did not exhibit any inhibitory activity
Ki, fold higher than that of PCI [2]: 6 fold
binding affinity for CPR, fold stronger than PCI-2K-R [2]: ~46 fold
inhibitory activity against CPR (in words) [2]: competitive inhibitor
Compound: C[C@H](NC(=O)[C@H](CC(N)=O)NC(=O)[C@H](CCCCN)NC(=O)[C@H](C)NC(=O)[C@@H]1CCCN1C(=O)[C@H](CCCCN)NC(=O)[C@@H](N)CS)C(=O)N[C@@H](CCCNC(=N)N)C(=O)N[C@@H](CS)C(N)=O [CPI-2KR] (H-CKPAKNARC-NH2; N-terminus assumed)
effect on TM-induced retardation of t-PA-induced fibrinolysis (in words) [3]: synergistically accelerated fibrinolysis; also recorded: dose-responsive inhibition
effective inhibitory concentration, fold higher than that of PCI [3]: 10 fold
effective inhibitory concentration on TM-induced retardation of t-PA-induced fibrinolysis ([3]; TM 8 nM): 126 nM

inhibitory activity against CPR (in words) [2]: no activity was observed
Compound: PCI-2K: PCI-derived peptide containing the two lysine residues, SEQ ID NO: 1 (NKPCKTHDD)

Km ([2]; hippuryl-L-arginine substrate, Lineweaver-Burke, read-out: Km of CPR in the presence of the inhibitor): 12.3 mM
Compound: PCI: small 39-residue protein (MW 4295 Da), potato carboxypeptidase inhibitor, SEQ ID NO: 4 (QQHADPICNKPCKTHDDCSGAWFCQACWNSARTCGPYVG) [reference compound]
Ki (CPR; read-out: Ki against CPR (literature)): 0.4 nM
effect on TM-induced retardation of t-PA-induced fibrinolysis (in words) [3]: permitting fibrinolysis to proceed

inhibitory activity against CPR (in words) [2]: does not inhibit
Compound: tetrapeptide C-terminal fragment of PCI: tetrapeptide C-terminal fragment of PCI (PYVG)
